Laboratory results from PubChem BioAssay AID588741 (Johns Hopkins Ion Channel Center, 2011).
Calls of active or inactive are those of the source.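 Rule for the calls: active = peak inhibition of the hERG potassium channel flux above 30% at some tested dose, plus a fitted dose response curve; inactive = no inhibition at any dose, or no curve.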

The compounds below were run against Voltage-gated inwardly rectifying potassium channel KCNH2 (Homo sapiens) (UniProt Q12809) (assay: KCNH2 potassium flux blockade – cell-based, FluxOR thallium flux, CRC set 3, selectivity assay for KCNK9 inhibitor project, SAR follow-up (AID 588741)). Details: hERG-expressing cells, FluxOR thallium flux fluorescence.
Sequence of Voltage-gated inwardly rectifying potassium channel KCNH2 (Homo sapiens) (Q12809 whole entry, looked up): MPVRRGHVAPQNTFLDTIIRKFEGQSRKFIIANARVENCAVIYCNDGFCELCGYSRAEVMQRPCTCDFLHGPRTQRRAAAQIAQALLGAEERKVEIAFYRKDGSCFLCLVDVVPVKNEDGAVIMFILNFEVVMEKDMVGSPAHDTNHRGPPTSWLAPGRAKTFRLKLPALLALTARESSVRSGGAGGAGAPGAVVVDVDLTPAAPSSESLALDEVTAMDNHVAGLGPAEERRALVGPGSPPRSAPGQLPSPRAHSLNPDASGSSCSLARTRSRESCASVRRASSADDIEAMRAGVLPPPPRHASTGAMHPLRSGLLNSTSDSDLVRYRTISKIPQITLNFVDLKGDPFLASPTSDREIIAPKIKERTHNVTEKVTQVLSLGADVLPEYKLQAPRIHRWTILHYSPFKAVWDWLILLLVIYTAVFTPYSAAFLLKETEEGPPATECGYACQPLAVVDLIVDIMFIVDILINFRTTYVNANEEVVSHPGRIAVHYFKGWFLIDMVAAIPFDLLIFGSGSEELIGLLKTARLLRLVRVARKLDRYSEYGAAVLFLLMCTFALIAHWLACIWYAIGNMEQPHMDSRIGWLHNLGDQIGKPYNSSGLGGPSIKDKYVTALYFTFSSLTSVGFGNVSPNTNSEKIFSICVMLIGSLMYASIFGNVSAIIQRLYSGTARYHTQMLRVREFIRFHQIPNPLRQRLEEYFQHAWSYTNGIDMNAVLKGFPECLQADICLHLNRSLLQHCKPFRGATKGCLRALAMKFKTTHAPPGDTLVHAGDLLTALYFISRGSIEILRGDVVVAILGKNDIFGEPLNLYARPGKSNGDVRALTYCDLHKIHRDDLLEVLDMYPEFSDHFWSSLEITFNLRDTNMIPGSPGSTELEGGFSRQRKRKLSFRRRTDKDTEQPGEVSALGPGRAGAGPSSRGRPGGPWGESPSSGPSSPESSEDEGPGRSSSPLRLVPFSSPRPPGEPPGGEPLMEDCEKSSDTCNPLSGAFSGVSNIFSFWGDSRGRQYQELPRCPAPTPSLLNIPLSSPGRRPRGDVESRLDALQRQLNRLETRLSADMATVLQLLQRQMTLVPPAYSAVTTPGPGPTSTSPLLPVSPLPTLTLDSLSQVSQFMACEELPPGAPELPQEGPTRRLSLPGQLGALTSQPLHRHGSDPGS
`CC(C1CC2CCC1C2)n1c(SCC(=O)c2ccc3c(c2)OCO3)nnc1-c1ccco1` (stereo not drawn) showed an IC50 of 3.45 µM. For `CC(C1CC2CCC1C2)n1c(SCC(=O)c2ccccc2)nnc1-c1ccco1` (stereo not drawn), the IC50 was 23.9 µM. Compound `COc1ccc(CCSc2nnc(-c3ccco3)n2C(C)C2CC3CCC2C3)cc1OC` (stereo not drawn) has an IC50 of 16.7 µM. In the case of `COc1ccc(C(=O)CSc2nnc(-c3ccco3)n2C(C)C2CC3CCC2C3)cc1` (stereo not drawn), the IC50 is reported as 20.1 µM. With `CC(C1CC2CCC1C2)n1c(SCc2ccccc2)nnc1-c1ccco1` (stereo not drawn) the IC50 was 9.77 µM. Work on `COc1ccc(C(=O)CSc2nnc(-c3ccco3)n2C(C)C2CC3CCC2C3)cc1OC` (stereo not drawn) yielded an IC50 of 13.6 µM. Work on `COc1cccc(C(=O)CSc2nnc(-c3ccco3)n2C(C)C2CC3CCC2C3)c1` (stereo not drawn) yielded an IC50 of 17.2 µM.

Same assay, conditions: hERG-expressing cells, FluxOR thallium flux fluorescence; at 30 µM (top of the series)
For `CC(C1CC2CCC1C2)n1c(-c2ccco2)nnc1C(F)(F)F` (stereo not drawn), the “flux ratio, lower = inhibition” value was “inactive”. With `CC(C1C2CCC1CC2)n1c(-c2ccco2)n[nH]c1=S` (stereo not drawn) the “flux ratio, lower = inhibition” value was “inactive”. `CC(C1CC2CCC1C2)n1c(SCC(=O)c2ccc(Cl)c(Cl)c2)nnc1-c1ccco1` (stereo not drawn) was tested, and the “flux ratio, lower = inhibition” value was “inactive”. With `COc1ccccc1C(=O)Nc1cccc(NC(=O)c2cccc3ccccc23)c1` the “flux ratio, lower = inhibition” value was “inactive”. For `CC(C1CC2CCC1C2)n1c(-c2ccc(N(C)C)cc2)n[nH]c1=S` (stereo not drawn), the “flux ratio, lower = inhibition” value was “inactive”. With `CC(C1CC2CCC1C2)n1c(-c2ccco2)n[nH]c1=O` (stereo not drawn) the “flux ratio, lower = inhibition” value was “inactive”. In the case of `CC(C1CC2CCC1C2)n1c(-c2ccccn2)n[nH]c1=S` (stereo not drawn), the “flux ratio, lower = inhibition” value is reported as “inactive”. With `CC(c1cccc2ccccc12)n1c(-c2ccco2)n[nH]c1=S` (stereo not drawn) the “flux ratio, lower = inhibition” value was “inactive”. For `CC(C1CC2CCC1C2)n1c(SC(F)F)nnc1-c1ccco1` (stereo not drawn), the “flux ratio, lower = inhibition” value was “inactive”. For `CC(C1CC2CCC1C2)n1cnnc1-c1ccco1` (stereo not drawn), the “flux ratio, lower = inhibition” value was “inactive”. `CC(C1CC2CCC1C2)n1c(-c2cccc(F)c2)n[nH]c1=S` (stereo not drawn) was tested, and the “flux ratio, lower = inhibition” value was “inactive”. `S=c1[nH]nc(-c2ccco2)n1CC1CC2CCC1C2` (stereo not drawn) was tested, and the “flux ratio, lower = inhibition” value was “inactive”. In the case of `CC(C)c1ccccc1C(=O)Nc1cccc(NC(=O)c2ccccc2OC(F)(F)F)c1`, the “flux ratio, lower = inhibition” value is reported as “inactive”. With `CC(NC(=O)c1ccco1)C1CC2CCC1C2` (stereo not drawn) the “flux ratio, lower = inhibition” value was “inactive”. With `CC(C1CC2CCC1C2)n1c(-c2cccn2C)n[nH]c1=S` (stereo not drawn) the “flux ratio, lower = inhibition” value was “inactive”. For `CC(C1CC2CCC1C2)n1c(-c2ccccc2F)n[nH]c1=S` (stereo not drawn), the “flux ratio, lower = inhibition” value was “inactive”. In the case of `CC(C1CC2CCC1C2)n1c(-c2ccco2)n[nH]c1=S` (stereo not drawn), the “flux ratio, lower = inhibition” value is reported as “inactive”. `CSc1nnc(-c2ccco2)n1C(C)C1CC2CCC1C2` (stereo not drawn) was tested, and the “flux ratio, lower = inhibition” value was “inactive”. With `CC(C1CC2CCC1C2)n1c(-c2cccnc2)n[nH]c1=S` (stereo not drawn) the “flux ratio, lower = inhibition” value was “inactive”. With `COc1ccccc1C(=O)Nc1cc(NC(=O)c2ccccc2C(C)C)ccc1F` the “flux ratio, lower = inhibition” value was “inactive”. In the case of `CC(C1CC2CCC1C2)n1c(-c2cccc(N(C)C)c2)n[nH]c1=S` (stereo not drawn), the “flux ratio, lower = inhibition” value is reported as “inactive”. `COc1cccc(-c2nnc(S(C)(=O)=O)n2C(C)C2CC3CCC2C3)c1` (stereo not drawn) was tested, and the “flux ratio, lower = inhibition” value was “inactive”. With `CC(CC1CC2CCC1C2)n1c(-c2ccco2)n[nH]c1=S` (stereo not drawn) the “flux ratio, lower = inhibition” value was “inactive”. For `CC(C1CC2CCC1C2)n1c(-c2cccs2)n[nH]c1=S` (stereo not drawn), the “flux ratio, lower = inhibition” value was “inactive”. With `CC(C1CC2CCC1C2)n1c(-c2ccncc2)n[nH]c1=S` (stereo not drawn) the “flux ratio, lower = inhibition” value was “inactive”. In the case of `C[C@@H](C1CCCCC1)n1c(-c2ccco2)n[nH]c1=S`, the “flux ratio, lower = inhibition” value is reported as “inactive”. In the case of `CC(C)Oc1ccccc1C(=O)Nc1cccc(NC(=O)c2ccccc2OC(F)(F)F)c1`, the “flux ratio, lower = inhibition” value is reported as “inactive”. With `CC(CCC1CCCC1)n1c(-c2ccco2)n[nH]c1=S` (stereo not drawn) the “flux ratio, lower = inhibition” value was “inactive”. For `COc1cccc(Cc2n[nH]c(=S)n2C(C)C2CC3CCC2C3)c1` (stereo not drawn), the “flux ratio, lower = inhibition” value was “inactive”. For `COc1cccc(-c2n[nH]c(=S)n2C(C)C2CC3CCC2C3)c1OC` (stereo not drawn), the “flux ratio, lower = inhibition” value was “inactive”. In the case of `CC(C1CC2CCC1C2)N(C)C(=O)c1ccco1` (stereo not drawn), the “flux ratio, lower = inhibition” value is reported as “inactive”. `CC(C1CC2CCC1C2)n1c(SCC#N)nnc1-c1cccs1` (stereo not drawn) was tested, and the “flux ratio, lower = inhibition” value was “inactive”. For `S=c1[nH]nc(-c2ccco2)n1C1CC2CCC1C2` (stereo not drawn), the “flux ratio, lower = inhibition” value was “inactive”. `C[C@H](C1CCCCC1)n1c(-c2ccco2)n[nH]c1=S` was tested, and the “flux ratio, lower = inhibition” value was “inactive”. For `CC(C1CCCCC1)n1c(-c2ccco2)n[nH]c1=S` (stereo not drawn), the “flux ratio, lower = inhibition” value was “inactive”. With `COc1cc(OC)cc(-c2n[nH]c(=S)n2C(C)C2CC3CCC2C3)c1` (stereo not drawn) the “flux ratio, lower = inhibition” value was “inactive”.
